Assay results reported in publication PMC7782785, “Outer-membrane-acting peptides and lipid II-targeting antibiotics cooperatively kill Gram-negative pathogens” (Communications Biology, 2021).
Values after ≈ are worked out from the molar mass of the structure shown.

Experiments:
A. baumannii ATCC 17978 = assay: microbe, parasite or virus in culture; assay type: cell-based; conditions: Acinetobacter baumannii, ATCC17978, read-out: MIC alone (MICA vancomycin, MICB D-11)
Method: (§1) MIC tests were performed in triplicate by liquid growth inhibition microdilution assays in sterile polypropylene microtiter plates according to the Clinical and Laboratory Standards Institute (CLSI) guideline for bacteria that grow aerobically. Briefly, the indicator strains were first streaked on the appropriate agar plate, and then single colonies were picked and incubated overnight in liquid broth. The final inoculum of bacteria was 5*10^5 CFU/mL prepared in CAMHB (cationic adjusted Mueller–Hinton broth, Sigma-Aldrich) or CAMHB plus 5% of lysed horse blood (TCS Biosciences, Buckingham, UK) in the case of S. pneumoniae. The antimicrobials were 2-fold serially diluted and 50 µL diluted bacterial suspension was added to each well to make the final volume 100 µL. The microtiter plates and the count plates were incubated at 37 °C for 16–20 h without shaking. Growth inhibition was assessed by measuring the OD600 using a microplate reader (Tecan Infinity F200). The lowest concentration of the antimicrobials that inhibits visible growth of the indicator strain is identified as the MIC value.

P. aeruginosa PA14 = assay: microbe, parasite or virus in culture; assay type: cell-based; conditions: Pseudomonas aeruginosa, PA14, read-out: MIC alone (MICA vancomycin, MICB D-11)
Method: as §1

A. baumannii B2026 = assay: microbe, parasite or virus in culture; assay type: cell-based; conditions: Acinetobacter baumannii, B2026, read-out: MIC alone (MICA vancomycin, MICB D-11)
Method: as §1

K. pneumoniae ATCC700603 = assay: microbe, parasite or virus in culture; assay type: cell-based; conditions: Klebsiella pneumoniae, ATCC700603, read-out: MIC alone (MICA vancomycin, MICB D-11)
Method: as §1

HEK-293 cells = assay: Cytotoxicity, cell viability (CellTiter-Glo); conditions: for Cell viability (% of control): HEK-293, CellTiter-Glo
Method: 96-well plates were seeded with HEK-293 cells at a concentration of 3*10^5 cells/well in 100 µL of DMEM growth medium supplemented with 1% NEAA and 10% FBS. Border wells were filled with 100 µL of sterile PBS. […] ATP levels were measured by adding 50 µL of CellTiter-Glo reagent (Promega, Madison, US) to each well, and luminescence was measured with a SpectraMax i3 microplate reader after 5 minutes of incubation. The potential effect of the tested compounds on cell viability was determined by comparing the signal obtained in the presence of different concentrations of the compounds with those obtained in the control wells. All these tests were performed in triplicate.

## CN[C@H](CC(C)C)C(=O)N[C@H]1C(=O)N[C@@H](CC(N)=O)C(=O)N[C@H]2C(=O)N[C@H]3C(=O)N[C@H](C(=O)N[C@H](C(=O)O)c4cc(O)cc(O)c4-c4cc3ccc4O)[C@H](O)c3ccc(c(Cl)c3)Oc3cc2cc(c3O[C@@H]2O[C@H](CO)[C@@H](O)[C@H](O)[C@H]2O[C@H]2C[C@](C)(N)[C@H](O)[C@H](C)O2)Oc2ccc(cc2Cl)[C@H]1O [Vancomycin]
A. baumannii ATCC 17978
  MIC: 88.3 µM (≈ 128 µg/mL)
P. aeruginosa PA14
  MIC: 88.3 µM (≈ 128 µg/mL)
A. baumannii B2026
  MIC: 22.1 µM (≈ 32 µg/mL)
K. pneumoniae ATCC700603
  MIC: > 88.3 µM
HEK-293 cells; 22 µM (22/22 µM for the combination), replicate 1
  Cell viability (% of control): 96 % of control
HEK-293 cells; 22 µM (22/22 µM for the combination), replicate 2
  Cell viability (% of control): 107 % of control
HEK-293 cells; 22 µM (22/22 µM for the combination), replicate 3
  Cell viability (% of control): 113 % of control
HEK-293 cells; 44 µM (44/44 µM for the combination), replicate 1
  Cell viability (% of control): 110 % of control
HEK-293 cells; 44 µM (44/44 µM for the combination), replicate 2
  Cell viability (% of control): 102 % of control
HEK-293 cells; 44 µM (44/44 µM for the combination), replicate 3
  Cell viability (% of control): 114 % of control
HEK-293 cells; 88 µM (88/88 µM for the combination), replicate 1
  Cell viability (% of control): 103 % of control
HEK-293 cells; 88 µM (88/88 µM for the combination), replicate 3
  Cell viability (% of control): 114 % of control
HEK-293 cells; all the concentrations tested (up to 88 µM)
  effect on viability of HEK-293 cells: did not affect the viability
